Measured values as given in patent publication US8563253B2, “Means and method for diagnosing hemolytic anemia” (priority 2006, dated 2013).

Test system: rats
Assay: Plasma metabolite profiling (GC-MS/LC-MS) of rats treated with aniline; biomarkers for aniline-inducible hemolytic anemia
Format: in vivo, rat
Method: A group of each 5 male and female rats was dosed once daily with aniline at 10 and 100 mg/kg body weight per gavage over 28 days. Additional groups of each 5 male and female animals served as controls. Before starting the treatment period, animals, which were 62-64 days old when supplied, were acclimatized to the housing and environmental conditions for 7 days. All animals of the animal population were kept under the same constant temperature (20-24±3° C.) and the same constant humidity (30-70%). Each animal of the animal population was kept in a separate cage. The animals of the animal population are fed ad libitum. The food to be used was be essentially free of chemical or microbial contaminants. Drinking water was also offered ad libitum. Accordingly, the water was be free of chemical and microbial contaminants as laid down in the European Drinking Water Directive 98/83/EG. The illumination period was 12 hours light followed by 12 hours darkness (12 hours light, from 6:00 to 18:00, and 12 hours darkness, from 18:00 to 6:00).
In the morning of day 7, 14, and 28, blood was taken from the retroorbital venous plexus from fasted anaesthetized animals. From each animal, 1 ml of blood was collected with EDTA as anticoagulant. The samples were be centrifuged for generation of plasma. All plasma samples were covered with a N2 atmosphere and then stored at −80° C. until analysis.
For mass spectrometry-based metabolite profiling analyses plasma samples were extracted and a polar and a non-polar fraction was obtained. For GC-MS analysis, the non-polar fraction was hydrolyzed under acidic conditions to yield the fatty acid methyl esters. Both fractions were further derivatised with a silylating agent before analysis. In LC-MS analysis, both fractions were reconstituted in appropriate solvent mixtures. HPLC was performed by gradient elution on reversed phase separation columns. For mass spectrometric detection metanomics proprietary technology was applied which allows target and high sensitivity MRM (Multiple Reaction Monitoring) profiling in parallel to a full screen analysis. […] Moreover, several hundred further analytes giving a fingerprint of the sample are included in the methods.
Following comprehensive analytical validation steps, the data for each analyte were normalized against data from pool samples. These samples were run in parallel through the whole process to account for process variability. The significance of treatment group values specific for sex, dose group and metabolite was determined by comparing means of the treated groups to the means of the respective untreated control groups using Student's t-test. Normalized treatment group values and their significance were fed into a database for further statistics and data mining processes.
The changes of the group of plasma metabolites being indicative for hemolytic anemia after treatment of rats with aniline are shown in the following table: […]

[1] = female rats, day 7, 100 mg/kg body weight/day by gavage
[2] = female rats, day 14, 100 mg/kg body weight/day by gavage
[3] = female rats, day 28, 100 mg/kg body weight/day by gavage
[4] = male and female rats, 100 mg/kg body weight/day by gavage for 28 days
[5] = male rats, day 7, 100 mg/kg body weight/day by gavage
[6] = male rats, day 14, 100 mg/kg body weight/day by gavage
[7] = male rats, day 28, 100 mg/kg body weight/day by gavage

SMILES: Nc1ccccc1 [aniline]
- 11-desoxycortisol, fold change against controls [1]: 0.39 fold
- 18-hydroxycorticosterone, fold change against controls [1]: 0.43 fold
- cytosine, fold change against controls [1]: 1.81 fold
- ribal (1,4-anhydro-2-deoxy-D-erythro-pent-1-enitol) (=MetID 407), fold change against controls [1]: 1.79 fold
- 11-desoxycortisol, fold change against controls [2]: 0.71 fold
- 18-hydroxycorticosterone, fold change against controls [2]: 0.71 fold
- cytosine, fold change against controls [2]: 1.18 fold
- ribal (1,4-anhydro-2-deoxy-D-erythro-pent-1-enitol) (=MetID 407), fold change against controls [2]: 1.66 fold
- 11-desoxycortisol, fold change against controls [3]: 0.41 fold
- 18-hydroxycorticosterone, fold change against controls [3]: 0.47 fold
- cytosine, fold change against controls [3]: 1.38 fold
- ribal (1,4-anhydro-2-deoxy-D-erythro-pent-1-enitol) (=MetID 407), fold change against controls [3]: 1.59 fold
- Regulation of 11-desoxycortisol [4]: down
- Regulation of 18-hydroxycorticosterone [4]: down
- Regulation of cytosine [4]: up
- Regulation of ribal (1,4-anhydro-2-deoxy-D-erythro-pent-1-enitol) (=MetID 407) [4]: up
- 11-desoxycortisol, fold change against controls [5]: 0.47 fold
- 18-hydroxycorticosterone, fold change against controls [5]: 0.34 fold
- cytosine, fold change against controls [5]: 1.50 fold
- ribal (1,4-anhydro-2-deoxy-D-erythro-pent-1-enitol) (=MetID 407), fold change against controls [5]: 1.68 fold
- 11-desoxycortisol, fold change against controls [6]: 0.48 fold
- 18-hydroxycorticosterone, fold change against controls [6]: 0.33 fold
- cytosine, fold change against controls [6]: 1.17 fold
- ribal (1,4-anhydro-2-deoxy-D-erythro-pent-1-enitol) (=MetID 407), fold change against controls [6]: 1.42 fold
- 11-desoxycortisol, fold change against controls [7]: 0.27 fold
- 18-hydroxycorticosterone, fold change against controls [7]: 0.18 fold
- cytosine, fold change against controls [7]: 1.71 fold
- ribal (1,4-anhydro-2-deoxy-D-erythro-pent-1-enitol) (=MetID 407), fold change against controls [7]: 1.82 fold
